Measurements as given in US20220175820A1 (PIERRE FABRE DERMO-COSMETIQUE, priority 2019, published 2022).
Marks after values point to notes of the source that are not given here.

Tests used:
[1] = system: prostaglandin PG6KF1α production, HaCat line (human keratinocytes); test: PG6KF1α release by HaCat keratinocytes stimulated with calcium ionophore A23187 (ELISA); format: cell-based
Protocol: The cell line used in this study is the HaCat line (human keratinocytes).
The cells are cultured in DMEM (Dulbecco's Modified Eagle Medium) supplemented with foetal calf serum in an environment at 37° C. and 5% CO2 on 24-well plates. They are then preincubated for 60 minutes, still at 37° C., with the products to be tested dissolved in water. A stimulant the arachidonic acid pathway is added for 5 hours. This is the stimulation phase; the stimulant is the calcium ionophore A23187 (solution in 0.01% DMSO) used at 5 μM. […] After 5 hours of stimulation, still in the same medium, the culture supernatant of each well is drawn off, centrifuged at 3000 RPM then stored at −20° C. The production of prostaglandin PG6KF1α in culture supernatant is measured with the Euromedex Elisa kit according to the supplier's instructions. Statistical analysis is performed by ANOVA followed by Dunnett's post-hoc test. Note that 3 independent experiments were conducted. The results for each product and for each dose are averaged from measurements performed on 3 wells. Thus, the control group (with no stimulant) makes it possible to quantify basal PG6KF1α production.

TSLP = TSLP production by stimulated normal human epidermal keratinocytes (atopic dermatitis model, ELISA); format: cell-based
Protocol: (§1) The study is performed on normal human epidermal keratinocytes cultured under standard conditions (37° C., 5% CO2). The culture medium is standard (keratinocyte-SFM supplemented with 0.25 ng/ml epidermal growth factor (EGF), 25 μg/ml pituitary extract and 25 μg/ml gentamycin). The test medium is the same without growth factor.
(§2) To simulate an atopic dermatitis environment, keratinocytes are preincubated for 1 hour in the medium with or without (control) the compounds to be tested, the vehicle (water) or the positive control, bafilomycin (macrolide family) at 30 nM. […] After this preincubation, keratinocytes are stimulated for 24 hours by a mixture of TLR ligands (Poly I:C and PamC3) and inflammatory cytokines (IL-4 and IL-13) added to the cells. An unstimulated control condition is also done at the same time. The cells are incubated for 24 hours.
(§3) The culture supernatants are collected, centrifuged and frozen at −80° C. TSLP and IL-8 are quantified by ELISA.
(§4) Three independent experiments are conducted. Statistical analysis is determined by one-way ANOVA followed by Dunnett's post-hoc test.

IL-8 = IL-8 production by stimulated normal human epidermal keratinocytes (atopic dermatitis model, ELISA); format: cell-based
Protocol: as §1, §2, §3, §4

[2] = system: DEGS2: sphingolipid C4-hydroxylase/delta-4 desaturase; test: RT-qPCR gene expression in normal human keratinocytes: DEGS2; format: cell-based; details: calcium chloride 1.5 mM, 48 h
Protocol: (§5) The effects of this compound were assessed via the RT-qPCR technique with the analysis of 12 target genes chosen for their importance in keratinocyte differentiation, antimicrobial defence and hydration. Calcium chloride (tested at 1.5 mM) is used as the reference compound (physiological agent inducing terminal epidermal differentiation). The cells are then collected for analysis of target expression (mRNA) by real-time PCR. Total RNAs were extracted with TriPure Isolation Reagent® according to the supplier's instructions (Roche Life Science, Meylan, France). They were assayed with the Bioanalyser 2100 (Agilent Technologies, Les Ulis, France). The mRNAs were reverse transcribed into complementary DNA with oligo(dT) and Transcriptor Reverse Transcriptase. PCR was performed in the LightCycler® System according to the supplier's instructions (Roche). The PCR mix used is SYBR green I. The results were analyzed with Microsoft Excel®. The relative quantity is calculated for each gene by normalizing with two reference genes, ribosomal protein L13A (RPL13A) and TATA box binding protein (TBP).

DEFB4A: β-defensin 2 = test: RT-qPCR gene expression in normal human keratinocytes: DEFB4A; format: cell-based; details: calcium chloride 1.5 mM, 48 h
Protocol: as §5

CLDN4: claudin 4 = test: RT-qPCR gene expression in normal human keratinocytes: CLDN4; format: cell-based; details: calcium chloride 1.5 mM, 48 h
Protocol: as §5

CASP14: caspase 14 = test: RT-qPCR gene expression in normal human keratinocytes: CASP14; format: cell-based; details: calcium chloride 1.5 mM, 48 h
Protocol: as §5

CDSN : corneodesmosin = test: RT-qPCR gene expression in normal human keratinocytes: CDSN; format: cell-based; details: calcium chloride 1.5 mM, 48 h
Protocol: as §5

TGM1: transglutaminase 1 = test: RT-qPCR gene expression in normal human keratinocytes: TGM1; format: cell-based; details: calcium chloride 1.5 mM, 48 h
Protocol: as §5

KLK7: type 7 kallikrein = test: RT-qPCR gene expression in normal human keratinocytes: KLK7; format: cell-based; details: calcium chloride 1.5 mM, 48 h
Protocol: as §5

[3] = system: FABP5: epidermal fatty acid binding protein; test: RT-qPCR gene expression in normal human keratinocytes: FABP5; format: cell-based; details: calcium chloride 1.5 mM, 48 h
Protocol: as §5

[4] = system: SULT2B1: cholesterol sulfotransferase; test: RT-qPCR gene expression in normal human keratinocytes: SULT2B1; format: cell-based; details: calcium chloride 1.5 mM, 48 h
Protocol: as §5

FLG: filaggrin = test: RT-qPCR gene expression in normal human keratinocytes: FLG; format: cell-based; details: calcium chloride 1.5 mM, 48 h
Protocol: as §5

[5] = pH ranging from 4 to 10 at ambient temperature; cited from earlier work
[6] = system: transcription factor NFκB; test: NFκB activation stimulated by TNFα in HaCat keratinocytes with luciferase reporter gene; format: cell-based, human; details: TNFα 0.3 ng/ml; for NFκB activation % Inh / NFκB activation RLU Mean: 5 hours
Protocol: The cell line used in this study is the HaCat line (human keratinocytes) stably transfected with the luciferase reporter gene.
These cells are cultured on 24-well plates under the same conditions as in Example 1. They are then preincubated for 60 minutes with the products to be tested, added to the culture medium in the form of a solution in water. A stimulant, TNFα (0.3 ng/ml, diluted in culture medium) is added to the cultures which are then incubated for 5 hours at 37° C. […] A positive control is used in this test, dexamethasone (synthetic glucocorticoid hormone, with an antiinflammatory and immunosuppressant effect, added to the culture medium in the form of a solution in water) tested at 2 μM in the culture medium. Note that 3 independent experiments were conducted. The Bright-Glo™ agent (which induces cell lysis and thus enables luciferase release) and its substrate (luciferin) are added before reading the luminescence. The raw data are analyzed by Excel. The intergroup comparison is performed by one-way ANOVA followed by Dunnett's post-hoc test.

[7] = indomethacin 0.1 μM, A23187 5 μM for 5 hours
[8] = bafilomycin 30 nM, stimulation by Poly I:C, PamC3, IL-4 and IL-13
[9] = dextran sulfate (Dextralip, 9000-20000 Da) 0.3 μg/ml, Poly I:C, PamC3, IL-4, IL-13
[10] = dextran sulfate (Dextralip, 9000-20000 Da) 0.3 μg/ml, Poly I:C, PamC3, IL-4, IL-13, listed as dextran sulfate
[11] = dextran sulfate (Dextralip, 9000-20000 Da) 3 μg/ml, Poly I:C, PamC3, IL-4, IL-13
[12] = dextran sulfate (Dextralip, 9000-20000 Da) 30 μg/ml, Poly I:C, PamC3, IL-4, IL-13
[13] = natural dextran sulfate 9000-20000 Da (Dextralip) 10 μg/ml, A23187 5 μM 5 h
[14] = natural dextran sulfate 9000-20000 Da (Dextralip) 30 μg/ml, A23187 5 μM 5 h
[15] = natural dextran sulfate 9000-20000 Da (Dextralip) 100 μg/ml, A23187 5 μM 5 h
[16] = natural dextran sulfate 9000-20000 Da (Dextralip) 300 μg/ml, A23187 5 μM 5 h
[17] = natural dextran sulfate 9000-20000 Da (Dextralip) 1000 μg/ml, A23187 5 μM 5 h
[18] = natural dextran sulfate 9000-20000 Da (Dextralip) 3000 μg/ml, A23187 5 μM 5 h
[19] = synthetic dextran sulfate 4000-8000 Da 10 μg/ml, A23187 5 μM 5 h
[20] = synthetic dextran sulfate 4000-8000 Da 30 μg/ml, A23187 5 μM 5 h
[21] = synthetic dextran sulfate 4000-8000 Da 100 μg/ml, A23187 5 μM 5 h
[22] = synthetic dextran sulfate 4000-8000 Da 300 μg/ml, A23187 5 μM 5 h
[23] = synthetic dextran sulfate 4000-8000 Da 1000 μg/ml, A23187 5 μM 5 h
[24] = synthetic dextran sulfate 4000-8000 Da 3000 μg/ml, A23187 5 μM 5 h
[25] = natural dextran sulfate (Dextralip, 9000-20000 Da) 0.3 mg/ml
[26] = natural dextran sulfate (Dextralip, 9000-20000 Da) 1 mg/ml
[27] = natural dextran sulfate (Dextralip, 9000-20000 Da) 3 mg/ml

COc1ccc2c(c1)c(CC(=O)O)c(C)n2C(=O)c1ccc(Cl)cc1 [Indo, indomethacin, reference compound]
PG6KF1α % Inh [1, 7]: 33%
PG6KF1α (pg/ml) Mean [1, 7]: 839.9 pg/mL
PG6KF1α % Inh ([1]; indomethacin 0.1 μM, A23187 5 μM for 5 hours, listed as Indomethacin): a third

CO/C1=C\C(C)=C\[C@@H](C)[C@@H](O)[C@@H](C)C/C(C)=C/C=C/[C@H](OC)[C@@H]([C@@H](C)[C@@H](O)[C@H](C)[C@@]2(O)C[C@@H](O)[C@H](C)[C@@H](C(C)C)O2)OC1=O [Bafilomycin, bafilomycin, reference compound]
TSLP production at 24 h % Inh (TSLP; [8]): 70* %
TSLP production at 24 h Mean (TSLP; [8]): 81 pg/mL
Production of IL-8 at 24 h Mean (IL-8; [8]): 26022 pg/mL

[Ca+2].[Cl-].[Cl-] [Calcium chloride]
DEGS2 Mean RQ (relative quantity) [2]: 3.0
DEFB4A Mean RQ (relative quantity) (DEFB4A: β-defensin 2): 118.0
CLDN4 Mean RQ (relative quantity) (CLDN4: claudin 4): 2.5
CASP14 Mean RQ (relative quantity) (CASP14: caspase 14): 1.6
CDSN Mean RQ (relative quantity) (CDSN : corneodesmosin): 1.8
TGM1 Mean RQ (relative quantity) (TGM1: transglutaminase 1): 9.0
KLK7 Mean RQ (relative quantity) (KLK7: type 7 kallikrein): 11.3
FABP5 Mean RQ (relative quantity) [3]: 6.9
SULT2B1 Mean RQ (relative quantity) [4]: 14.0
FLG Mean RQ (relative quantity) (FLG: filaggrin): 4.5

Sodium dextran sulphate [Dextran sulfate]
TSLP production at 24 h % Inh (TSLP; [9]): 0%
TSLP production at 24 h Mean (TSLP; [9]): 247 pg/mL
TSLP production at 24 h % Inh (TSLP; [10]): does not induce reduction in TSLP production
TSLP production at 24 h % Inh (TSLP; [11]): 90%
TSLP production at 24 h Mean (TSLP; [11]): 34 pg/mL
TSLP production at 24 h % Inh (TSLP; [12]): 96%
TSLP production at 24 h Mean (TSLP; [12]): 19 pg/mL
PG6KF1α % Inh [1, 13]: 36%
PG6KF1α (pg/ml) Mean [1, 13]: 1878.6 pg/mL
PG6KF1α % Inh [1, 14]: 23%
PG6KF1α (pg/ml) Mean [1, 14]: 2113.4 pg/mL
PG6KF1α % Inh [1, 15]: 14%
PG6KF1α (pg/ml) Mean [1, 15]: 2287.5 pg/mL
PG6KF1α % Inh [1, 16]: 32%
PG6KF1α (pg/ml) Mean [1, 16]: 1950.9 pg/mL
PG6KF1α % Inh [1, 17]: 43%
PG6KF1α (pg/ml) Mean [1, 17]: 1737.6 pg/mL
PG6KF1α % Inh [1, 18]: 37%
PG6KF1α (pg/ml) Mean [1, 18]: 1843.8 pg/mL
PG6KF1α % Inh [1, 19]: 35%
PG6KF1α (pg/ml) Mean [1, 19]: 1536.5 pg/mL
PG6KF1α % Inh [1, 20]: 23%
PG6KF1α (pg/ml) Mean [1, 20]: 1719.7 pg/mL
PG6KF1α % Inh [1, 21]: 14%
PG6KF1α (pg/ml) Mean [1, 21]: 1848.5 pg/mL
PG6KF1α % Inh [1, 22]: 29%
PG6KF1α (pg/ml) Mean [1, 22]: 1626.6 pg/mL
PG6KF1α % Inh [1, 23]: 40%
PG6KF1α (pg/ml) Mean [1, 23]: 1462.5 pg/mL
PG6KF1α % Inh [1, 24]: 39%
PG6KF1α (pg/ml) Mean [1, 24]: 1486.2 pg/mL
stability in solutions [5]: high stability
Production of IL-8 at 24 h % Inh (IL-8; [9]): 0%
Production of IL-8 at 24 h Mean (IL-8; [9]): 63672 pg/mL
Production of IL-8 at 24 h % Inh (IL-8; [10]): not sufficient to inhibit IL-8 production
Production of IL-8 at 24 h % Inh (IL-8; [11]): 82** %
Production of IL-8 at 24 h Mean (IL-8; [11]): 10837 pg/mL
Production of IL-8 at 24 h % Inh (IL-8; dextran sulfate (Dextralip, 9000-20000 Da) 3 μg/ml, Poly I:C, PamC3, IL-4, IL-13, listed as dextran sulfate): more than 80%
Production of IL-8 at 24 h % Inh (IL-8; [12]): 100%
Production of IL-8 at 24 h Mean (IL-8; [12]): 170 pg/mL
NFκB activation % Inh [6, 25]: does not reduce NFκB activation
NFκB activation RLU Mean [6, 25]: 27024 RLU
NFκB activation % Inh ([6]; natural dextran sulfate (Dextralip, 9000-20000 Da) 0.3 mg/ml, listed as Dex S.): −13%
NFκB activation % Inh [6, 26]: does not reduce NFκB activation
NFκB activation RLU Mean [6, 26]: 23229 RLU
NFκB activation % Inh ([6]; natural dextran sulfate (Dextralip, 9000-20000 Da) 1 mg/ml, listed as Dex S.): 3%
NFκB activation % Inh [6, 27]: 42%
NFκB activation RLU Mean [6, 27]: 13836 RLU

C[C@@H]1C[C@H]2[C@@H]3CCC4=CC(=O)C=C[C@]4(C)[C@@]3(F)[C@@H](O)C[C@]2(C)[C@@]1(O)C(=O)CO [Dexa, dexamethasone, reference compound]
inhibition at 2 µM ([6]; Homo sapiens, HaCaT, 5 h, dexamethasone 2 μM, read-out: NFκB activation % Inh): > 40%
NFκB activation % Inh ([6]; dexamethasone 2 μM): 41%
NFκB activation RLU Mean ([6]; dexamethasone 2 μM): 14206 RLU
